{"source": "patent US10077446B2", "about": "“Glucan-encapsulated siRNA for treating type 2 diabetes mellitus” (The United States of America, as represented by THE …, priority 2013, dated 2018)", "key": {"CB1R mRNA": {"system": "CB1R mRNA", "assay": "CB1R gene silencing by siRNA/EP in peritoneal elicited macrophages (PEC), qPCR", "assay_type": "cell-based, rat", "description": "(§1) Eight-week old ZDF rats were injected i.p. with 4% thioglycollate broth (Sigma-Aldrich). Five days following injection, the peritoneal cavity was washed with PBS and peritoneal fluid was filtered through a 70 μm diameter pore nylon mesh and centrifuged. The pellet was first treated with red blood cell lysis buffer and plated in DMEM supplemented with 10% fetal bovine serum (FBS), 50 μg/ml streptomycin and 50 units/ml penicillin. 24 hours after isolation peritoneal elicited cells (PEC) were treated with siRNA. Eighty, 160 or 240 pmoles of scrambled or CB1R siRNA (Dharmacon) was incubated with 3 nmoles EP in PBS for 15 min and added to 1×10^6 cells. 48 hours after treatment, mRNA were extracted, reversed transcribed and the degree of CB1R knock-down was analyzed by qPCR.\n(§2) Total mRNA from the liver, pancreas and kidney were extracted with Trizol (Invitrogen), while total mRNA from cells was extracted using RNEASY™ Mini Kit (Qiagen). All extractions were followed by DNase I treatment (Invitrogen). Total mRNA was reverse-transcribed using the ISCRIPT™ cDNA kit (Bio-Rad). Real-time PCR was performed as described previously (Jourdan, et al. 2010 Diabetes 59:926-934) in a 96-well plate using a STEPONEPLUS™ real time PCR system (Applied Biosystems). QUANTITECT™ Primer Assays were used to detect gene expression (Table 3, which lists the primers used for rat and mice (tissue)). […]"}, "CB2R mRNA": {"system": "CB2R mRNA", "assay": "siRNA specificity: CB2 receptor expression in peritoneal elicited macrophages (PEC)", "assay_type": "cell-based, rat", "conditions": "thioglycollate-induced PEC", "description": "The specificity of each siRNA was measured in terms of knockdown of CB2 receptor expression, and a dose-response analysis of siRNA C was carried out.\nas §1\nas §2, with “Real-time PCR was performed as described previously (Jourdan, et al. 2010 Diabetes 59:926-934) in a 96-well plate using a STEPONEPLUS™ real time PCR system (Applied Biosystems).” left out"}, "[1]": {"system": "Zucker diabetic fatty (ZDF) rats", "assay": "10-day i.p. treatment of ZDF rats with glucan-encapsulated CB1R siRNA (GeRPs)", "assay_type": "in vivo, rat", "conditions": "daily i.p. GeRPs for 10 days", "description": "Blood glucose levels were determined using the Elite glucometer (Bayer, Pittsburgh, Pa.). […] Plasma insulin was measured using the Ultra Sensitive rat Insulin ELISA kit (Crystal Chem Inc). Hemoglobin A1c was determined using the Rat Hemoglobin A1c (HbA1c) assay kit (Crystal Chem) and c-peptide was quantified by ELISA (C-peptide (rat) ELISA, ALPCO). Serum leptin and adiponectin were determined by ELISA (B-Bridge International). α-amylase, lipase, and uric acid concentrations were determined using commercially available colorimetric kits (BioAssay Systems). TNF-α and IL-1β were determined using TNF-α ELISA Kit (for Lysates) (RayBiotech, Inc.) and IL1β Rat ELISA Kit (Abeam), respectively.\nPancreas was fixed in 10% neutral buffered formalin (NBF), embedded in paraffin and sectioned ([…]) onto glass slides. […] For detection, secondary Ab coupled to FITC or PE were used (Table 2). Images were viewed with a Fluoview FV10i confocal microscope system (Olympus). Images were then analyzed using image J software and the presence or absence of co-localization was assessed by calculating the Pearson's coefficient.\nFluorescein (FITC)-labeled glucan shells were prepared as previously described (Tesz, et al. 2011 Biochemical Journal 436:351-362). To prepare a GeRP dose for one rat, 50 nmoles siRNA (Dharmacon) were incubated with 500 nmoles Endo-Porter (Gene Tools) in 30 mM sodium acetate pH 4.8 for 15 min at RT in a final volume of 200 μl. The siRNA/Endo-Porter solution was added to 10 mg ([…]) of FITC-glucan shells and then vortexed and incubated for 1 hour. The siRNA loaded GeRPs were then resuspended in 5 ml PBS and sonicated to ensure homogeneity of the GeRP preparation. […]\nTotal mRNA from the liver, pancreas and kidney were extracted with Trizol (Invitrogen), while total mRNA from cells was extracted using RNEASY™ Mini Kit (Qiagen). […] QUANTITECT™ Primer Assays were used to detect gene expression (Table 3, which lists the primers used for rat and mice (tissue)). […]"}}}
{"substance": "sense GCAUCAAGAGCACCGUUAAUU (SEQ ID NO: 9), antisense UUAACGGUGCUCUUGAUGCUU (SEQ ID NO: 10) (listed as RNA, chemistry not given here) [siRNA C, siRNA directed against rat CB1R, selected for in vivo use]", "values": [{"measurement": "degree of knockdown among the four siRNA sequences", "setting": "CB1R mRNA; rat CB1R siRNAs A-D", "result": "greatest degree of knockdown"}, {"measurement": "suppression of CB1R mRNA", "setting": "CB1R mRNA; thioglycollate-induced PEC, 48 h, dose-dependent, preliminary experiments", "result": "> 95", "unit": "%"}, {"measurement": "CB2R mRNA", "setting": "CB2R mRNA", "result": "no change"}, {"measurement": "glycemia and insulinemia", "setting": "[1]", "result": "remained normoglycemic and hyperinsulinemic"}, {"measurement": "insulin expression and content in islets", "setting": "[1]", "result": "increased"}, {"measurement": "macrophage infiltration and expression of Nlrp3-ASC, IL-1β, IL-18, MCP-1 and CB1R", "setting": "[1]", "result": "decreased"}]}
